Among the data in PMC10815619, “Leveraging SARS-CoV-2 Main Protease (M^pro) for COVID-19 Mitigation with Selenium-Based Inhibitors” (International Journal of Molecular Sciences, 2024) are IC50 values, retold here.

In this assay the target is T1, SARS-CoV-2 M^pro (Severe acute respiratory syndrome coronavirus 2, UniProt P0DTD1).
T1 construct: covers ORF1ab polyprotein residues 3264–3569; N-terminal leader ending in the Mpro autocleavage site (SAVLQ*SGFRK) (N, cleaved yes); made in house; host or cells: Escherichia coli BL21 (DE3), pET100D-Topo vector
As to the kind of experiment: Fluorescence-based cleavage assay with AFC-peptide substrate, IC50 against M^pro. The format is biochemical.

Where two headings read alike, the source gives them in different places.

Experimental: For the determination of half-maximal inhibitory concentrations (IC50) of inhibitors against M^pro, an AFC-Peptide substrate (SAE0180, Merck) was used for a fluorescence-based cleavage assay [66]. The assay was performed in half area 96-well, black, flat-bottomed microtiter plates (Corstar, Corning, Glendale, CA, USA) with a final volume of 125 μL. M^pro (final concentrations of 5–50 nM) was pre-incubated for 1 h at 25 °C with compounds at different concentrations in the assay buffer (PBS, pH 7.5). […] The readings for the different concentrations of the inhibitor compounds incubated with the substrate without M^Pro were measured as a blank. […] The results were plotted as dose inhibition curves using nonlinear regression with a variable slope to determine the IC50 values of inhibitor compounds using GraphPad Prism 9.0.

As usually defined, the IC50 is the concentration needed to halve the response being measured. `Cc1cc(C)cc(NC(=O)[Se]Cc2ccc(S(N)(=O)=O)cc2)c1` [Cmp. 3c, Se-(4-Sulfamoylbenzyl) (3,5-Dimethylphenyl) Carbamoselenoate]: the half-inhibitory concentration (IC50) (recombinant M^pro 5-50 nM, 1 h pre-incubation at 25 °C, AFC-peptide substrate 12 μM, PBS pH 7.5, mean ± SD (n = 3), read-out: IC50 against M^pro) is 704 nM.

Compound `Cc1ccc(NC(=O)[Se]c2ccccc2)cc1` [Cmp. 3b] returned a 50% inhibitory concentration (IC50) of 1040 ± 47 nM.
